Where a name gives a salt, the structure may show the parent alone. Read-outs that look alike come from different tables or passages of the source.
Key:
[1] = Solubility by visual inspection
Protocol: (§1) If the sample is dissolved, there is low absorbance (close to zero), any turbidity (>0.5) indicates incomplete solution.

[2] = Solubility by absorption spectrometry (absorbance at 600 nm, 1 cm path)
Protocol: as §1

[3] = Vanillin solubility in other solvents; assay type: physicochemical
[4] = Solubility and storage stability of fragrance ingredients in TEC/1,3-butylene glycol 80/20 mixture; assay type: physicochemical; conditions: for solubility: t = 0, 5 min. heating at 50° C. + 8-10 hrs. stirring at room temperature
Protocol: In the table above, the solubility of single ingredients solubility has been summarized. […] Furthermore, the storage stability at 5 and 60° C. for 14 days have been tested.

[5] = Miscibility and stability in matrix and application; conditions: for miscibility and stability properties compared to DPG: fragrance oil matrix and Eau de Toilette (at 10%)
From the text: The miscibility and stability of the solvent mixture of the present invention was compared with those of DPG and the pure mixture ingredients. The miscibility with isopropyl myristate (IPM) and ethylene brassylate (EB) mimics the miscibility with a fragrance oil matrix.

[6] = 1% in 1,3-butylene glycol (*), sample heated and cooled down to room temperature
[7] = 1% in 1:3 MIX (*), sample heated and cooled down to room temperature
[8] = 1% in 3:1 MIX (*), sample heated and cooled down to room temperature
[9] = 1% in TEC (*), sample heated and cooled down to room temperature
[10] = 10% in 1,3-butylene glycol (*), sample heated and cooled down to room temperature
[11] = 10% in 1:1 MIX (*), sample heated and cooled down to room temperature
[12] = 10% in 1:3 MIX (*), sample heated and cooled down to room temperature
[13] = 10% in 3:1 MIX (*), sample heated and cooled down to room temperature
[14] = 10% in TEC (*), sample heated and cooled down to room temperature
[15] = 10% in EDT premix, 14 days 5° C.
[16] = 10% in EDT premix, t = 0 at room temperature

Cc1occc(=O)c1O [Maltol Lg Crist, 3-hydroxy-2-methyl pyran-4-one]
visual inspection [1, 6]: non soluble
visual inspection [1, 7]: soluble
visual inspection [1, 8]: soluble
visual inspection [1, 9]: non soluble
ultrasonic bath, spectrometer [2, 6]: solid
ultrasonic bath, spectrometer [2, 7]: 0.02 AU
ultrasonic bath, spectrometer [2, 8]: 0.02 AU
ultrasonic bath, spectrometer [2, 9]: solid

N#CC(=C1CCCCC1)c1ccccc1 [Peonile, 2-cyclohexylidene-2-phenylacetonitrile]
visual inspection ([1]; 10% in 1,3-butylene glycol): non soluble
visual inspection ([1]; 10% in 1:1 MIX): soluble
visual inspection ([1]; 10% in 1:3 MIX): soluble
visual inspection ([1]; 10% in 3:1 MIX): soluble
visual inspection ([1]; 10% in TEC): soluble
ultrasonic bath, spectrometer ([2]; 10% in 1,3-butylene glycol): >2 AU
ultrasonic bath, spectrometer ([2]; 10% in 1:1 MIX): 0.00 AU
ultrasonic bath, spectrometer ([2]; 10% in 1:3 MIX): 0.02 AU
ultrasonic bath, spectrometer ([2]; 10% in 3:1 MIX): 0.02 AU
ultrasonic bath, spectrometer ([2]; 10% in TEC): 0.02 AU

O=c1ccc2ccccc2o1 [Coumarine Pure Crist, 1-benzopyran-2-one]
visual inspection [1, 10]: soluble
visual inspection [1, 11]: soluble
visual inspection [1, 12]: soluble
visual inspection [1, 13]: soluble
visual inspection [1, 14]: soluble
ultrasonic bath, spectrometer [2, 10]: 0.06 AU
ultrasonic bath, spectrometer [2, 11]: 0.05 AU
ultrasonic bath, spectrometer [2, 12]: 0.00 AU
ultrasonic bath, spectrometer [2, 13]: 0.02 AU
ultrasonic bath, spectrometer [2, 14]: 0.07 AU

COc1cc(C=O)ccc1O [vanillin, 4-hydroxy-3-methoxybenzaldehyde]
amount that can be dissolved ([3]; in DPG, when saturation occurs): about 20%
amount that can be dissolved ([3]; in triethylcitrate (TEC)): less than 15%
solubility ([4]; 15% in MIX 80/20): Solubility OK
solubility ([4]; 20% in MIX 80/20): Solubility OK
solubility ([4]; 25% in MIX 80/20): Solubility OK
amount that can be dissolved ([4]; in the solvent mixture of the present invention): at least 25%

CC(O)CCO (centres unmarked) [1,3-butylene glycol]
miscibility and stability rating ([5]; 10% in EDT premix, 24 h UV): clear
miscibility and stability rating [5, 15]: clear
miscibility and stability rating [5, 16]: clear
miscibility and stability rating ([5]; 10% in IPM, 14 days 5° C.): biphasic, hazy
miscibility and stability properties compared to DPG [5]: show disadvantages when compared to DPG
miscibility and stability rating ([5]; pure, 14 days 5° C.): clear

CCOc1cc(C=O)ccc1O [Ethyl Vanilline, 3-Ethoxy-4-hydroxybenzaldehyde]
ultrasonic bath, spectrometer (30 %): 0.00 AU
ultrasonic bath, spectrometer (40 %): 0.04 AU

CCOC(=O)CC(O)(CC(=O)OCC)C(=O)OCC [TEC, Triethyl citrate]
miscibility and stability rating ([5]; 3% in EDT premix, 24 h UV): clear
miscibility and stability rating ([5]; 3% in EDT premix, 14 days 5° C.): clear
miscibility and stability rating ([5]; 3% in EDT premix, 14 days −10° C.): clear
miscibility and stability rating ([5]; 3% in EDT premix, t = 0 at room temperature): clear
miscibility and stability rating ([5]; 5% in EDT premix, 24 h UV): clear
miscibility and stability rating ([5]; 5% in EDT premix, 14 days 5° C.): clear
miscibility and stability rating ([5]; 5% in EDT premix, 14 days −10° C.): clear
miscibility and stability rating ([5]; 5% in EDT premix, t = 0 at room temperature): clear
miscibility and stability rating ([5]; 10% in EB, 24 h UV): clear
miscibility and stability rating ([5]; 10% in EB, 14 d 60° C.): clear
miscibility and stability rating ([5]; 10% in EB, 14 days 5° C.): clear
miscibility and stability rating ([5]; 10% in EDT premix, 24 h UV): clear
miscibility and stability rating ([5]; 10% in EDT premix, 14 d 60° C.): clear
miscibility and stability rating [5, 15]: clear
miscibility and stability rating ([5]; 10% in EDT premix, 14 days −10° C.): clear
miscibility and stability rating [5, 16]: clear
miscibility and stability rating ([5]; 10% in IPM, 24 h UV): clear
miscibility and stability rating ([5]; 10% in IPM, 14 d 60° C.): clear
miscibility and stability rating ([5]; 10% in IPM, 14 days 5° C.): clear
miscibility and stability properties compared to DPG [5]: show disadvantages when compared to DPG

— US20250032375A1, “SOLVENT MIXTURES COMPRISING 1,3-BUTYLENE GLYCOL AND TRIETHYL-CITRATE” (Givaudan SA, priority 2022, published 2025)
